Measured values reported in US10017765B2, “Inhibitors of CACNA1A/ALPHA1A subunit internal ribosomal entry site (IRES) and methods of treating spinocerebellar ataxia type 6” (THE UNIVERSITY OF CHICAGO, priority 2013, dated 2018).
Entries after “also recorded” stand apart in the source; their conditions may differ.

Experiments:
[1] = test system: CACNA1 A IRES pRCTF; experiment: Preliminary screening, pRCTF R-Luc/F-Luc bicistronic reporter in HEK293 cells; assay type: cell-based, human
[2] = test system: PC12 cells; experiment: NGF-induced neurite outgrowth of transfected PC12 cells; assay type: cell-based, rat; conditions: NGF treatment

Question: How did the “activity of CACNA1A IRES pRCTF” value [1] turn out when COc1ccc(C[C@H]2NC[C@H](O)[C@H]2OC(C)=O)cc1 [anisomycin] was run?
Answer: Its value is “has the potential to inhibit”.

Question: How did the α1AWT-induced neurite outgrowth ([2]; PC12 cells expressing full-length α1AWT-FLAG) turn out when ω-agatoxin was run?
Answer: Its α1AWT-induced neurite outgrowth is “could not be blocked; also recorded: did not block”.

Question: And the “α1ACTWT-induced (enhanced) neurite outgrowth” value ([2]; PC12 cells transfected with α1ACTWT-FLAG)?
Answer: The value was “no effect”.
